Results taken from ChEMBL document CHEMBL3880430, “Arginine derivatives with NP-1 antagonistic activity” (2012).
Activity calls are given as the source filed them. No cut-off for these calls is given here.

Assays:
[1] = Cytotoxicity in human A549 cells assessed as decrease in cell viability after 44 hrs by XTT assay; assay type: functional, cell-based; settings: A549, 44 h
[2] = target: Neuropilin-1 (Homo sapiens) (UniProt O14786); assay: Inhibition of neuropilin-1 in human DU145 cells assessed as decrease in cell adhesion to extracellular matrix proteins at 10 to 100 uM after 1.5 hrs by calcein-AM dye based fluorescence assay; settings: DU-145
Chain of Neuropilin-1 (Homo sapiens) (O14786 whole entry): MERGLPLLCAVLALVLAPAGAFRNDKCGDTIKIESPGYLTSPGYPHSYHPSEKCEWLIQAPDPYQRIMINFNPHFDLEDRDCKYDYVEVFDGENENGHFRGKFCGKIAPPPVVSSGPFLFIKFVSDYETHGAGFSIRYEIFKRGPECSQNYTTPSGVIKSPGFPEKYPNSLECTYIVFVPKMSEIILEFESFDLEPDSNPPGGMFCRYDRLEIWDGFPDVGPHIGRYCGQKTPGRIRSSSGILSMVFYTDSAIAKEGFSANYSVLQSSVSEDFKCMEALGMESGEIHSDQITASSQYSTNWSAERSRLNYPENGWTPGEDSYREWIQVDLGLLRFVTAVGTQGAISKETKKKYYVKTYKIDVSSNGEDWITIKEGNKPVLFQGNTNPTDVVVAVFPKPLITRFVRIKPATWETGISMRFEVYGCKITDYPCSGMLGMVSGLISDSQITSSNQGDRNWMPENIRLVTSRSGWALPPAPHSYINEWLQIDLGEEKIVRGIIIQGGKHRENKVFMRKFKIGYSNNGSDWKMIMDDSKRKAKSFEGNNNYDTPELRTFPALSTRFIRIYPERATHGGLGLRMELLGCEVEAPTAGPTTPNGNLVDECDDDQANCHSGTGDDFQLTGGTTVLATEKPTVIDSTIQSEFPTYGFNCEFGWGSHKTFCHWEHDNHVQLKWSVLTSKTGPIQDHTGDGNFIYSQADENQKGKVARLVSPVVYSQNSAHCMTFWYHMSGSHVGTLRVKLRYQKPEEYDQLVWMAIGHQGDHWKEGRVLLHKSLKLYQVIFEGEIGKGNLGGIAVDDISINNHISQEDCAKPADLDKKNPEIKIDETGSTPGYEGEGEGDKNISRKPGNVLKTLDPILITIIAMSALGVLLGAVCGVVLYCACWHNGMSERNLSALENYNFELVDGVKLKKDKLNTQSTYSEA

[3] = target: Neuropilin-1 (Homo sapiens) (UniProt O14786); assay: Inhibition of neuropilin-1 in human ACHN cells assessed as decrease in cell migration at 10 to 100 uM after 4 hrs by trans-well assay; assay type: cell-based
[4] = target: Neuropilin-1 (Homo sapiens) (UniProt O14786); assay: Inhibition of neuropilin-1 in human A549 cells assessed as decrease in cell migration at 10 to 100 uM after 4 hrs by trans-well assay; assay type: cell-based

| SMILES | IC50 [1] [µM] | further results |
| --- | --- | --- |
| Cc1noc(C)c1-c1cccc(S(=O)(=O)Nc2ccsc2C(=O)N[C@@H](CCCNC(=N)N)C(=O)O)c1 | < 20 | – |
| CN1CCOc2cc(-c3cc4c(c(S(=O)(=O)Nc5ccsc5C(=O)N[C@@H](CCCNC(=N)N)C(=O)O)c3)OCC4)cnc21 | < 20 | – |
| N=C(N)NCCC[C@H](NC(=O)c1sccc1NS(=O)(=O)c1ccccc1[N+](=O)[O-])C(=O)O | < 20 | – |
| N=C(N)NCCC[C@H](NC(=O)c1sccc1NS(=O)(=O)c1cccc(N)c1)C(=O)O | < 20 | – |
| N=C(N)NCCC[C@H](NC(=O)c1sccc1NS(=O)(=O)c1cccc(CCc2cccnc2)c1)C(=O)O | < 20 | – |
| Cc1ccc2nsnc2c1S(=O)(=O)Nc1ccsc1C(=O)N[C@@H](CCCNC(=N)N)C(=O)O | < 20 | – |
| N=C(N)NCCC[C@H](NC(=O)c1sccc1NS(=O)(=O)c1ccccc1N)C(=O)O | < 20 | – |
| N=C(N)NCCC[C@H](NC(=O)c1sccc1NS(=O)(=O)c1cc2ccccc2o1)C(=O)O | < 20 | – |
| Cc1noc(C)c1-c1cc2c(c(S(=O)(=O)Nc3ccsc3C(=O)N[C@@H](CCCNC(=N)N)C(=O)O)c1)OCC2 | < 20 | – |
| Cc1nc(CNc2cccc(S(=O)(=O)Nc3ccsc3C(=O)N[C@@H](CCCNC(=N)N)C(=O)O)c2)c(C)o1 | < 20 | – |
| Cc1cc(CNc2cccc(S(=O)(=O)Nc3ccsc3C(=O)N[C@@H](CCCNC(=N)N)C(=O)O)c2)n(C)n1 | < 20 | – |
| N=C(N)NCCC[C@H](NC(=O)c1sccc1NS(=O)(=O)c1ccc(N)cc1)C(=O)O | < 20 | inhibition [2]: Active; inhibition [3]: Active; inhibition [4]: Active |
| N=C(N)NC(=O)CC[C@H](NC(=O)c1sccc1NS(=O)(=O)c1ccccc1[N+](=O)[O-])C(=O)O | < 20 | – |
| CC(=O)Nc1ccc(S(=O)(=O)Nc2ccsc2C(=O)N[C@@H](CCCNC(=N)N)C(=O)O)cc1 | < 20 | – |
| N=C(N)NCCC[C@H](NC(=O)c1sccc1NS(=O)(=O)c1cccc(NCc2ccccn2)c1)C(=O)O | < 20 | – |
| N=C(N)NCCC[C@H](NC(=O)c1sccc1NS(=O)(=O)c1cccc(C#CCN)c1)C(=O)O | < 20 | – |
| N=C(N)NCCC[C@H](NC(=O)c1sccc1NS(=O)(=O)c1cccc(CCCN)c1)C(=O)O | < 20 | – |
| Cc1nn(C)c(Cl)c1CNc1cccc(S(=O)(=O)Nc2ccsc2C(=O)N[C@@H](CCCNC(=N)N)C(=O)O)c1 | < 20 | – |
| N=C(N)NCCC[C@H](NC(=O)c1sccc1NS(=O)(=O)c1cc2ccccc2s1)C(=O)O | < 20 | – |
